Test results: patent US20230118142A1, “AGENTS FOR USE IN THE TREATMENT OF TISSUE DAMAGE” (UCL BUSINESS LTD, priority 2020, published 2023)

Key:
Parameters in all cases: The final concentrations were 0.73 μM native pentameric CRP; from tissue
CRP [1] = biological target: T1, CRP (Homo sapiens, UniProt P02741); assay: Roche immunoturbidimetric assay: pure CRP; format: binding; conditions: pure CRP in TC buffer; read-out: IC50 (μM), SD; inhibition of Roche CRP immunoreactivity
T1 sequence (P02741 19-224): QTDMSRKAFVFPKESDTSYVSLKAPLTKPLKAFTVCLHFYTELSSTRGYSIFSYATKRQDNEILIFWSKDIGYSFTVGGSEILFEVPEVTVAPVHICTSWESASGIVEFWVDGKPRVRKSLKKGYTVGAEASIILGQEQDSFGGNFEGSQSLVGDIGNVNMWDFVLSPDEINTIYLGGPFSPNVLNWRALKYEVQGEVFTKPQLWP
Protocol: (i) Human CRP at ˜90 μg/ml (3.9 μM monomer or 0.78 μM pentamer) in TC buffer was prepared from a stock solution; a 75 μl aliquot was used in the assay.
(ii) Compounds were prepared from stock solutions at up to 10 mM in TC (labelled S1). They were serially diluted with TC buffer (100 μl ligand+200 μl TC) to provide up to 9 dilutions, S2-S10. A TC buffer control (S0) was included in each assay.
(iii) A 15 μl volume of each ligand solution was incubated with 75 μl of CRP for 1 h at 37° C. The final concentrations were CRP pentamer=0.73 μM, ligands S1-S10=625-0.03 μM, corresponding to ligand:CRP pentamer ratios of 853-0.04.
(iv) CRP concentrations were measured by the Roche microparticle-enhanced immunoturbidimetric assay (10) on the COBAS MIRA autoanalyser, and results expressed as a percentage of the CRP control.
(v) Data were plotted using Sigmaplot (V14) using the 4 parameter logistic curve y=min+(max−min)/(1+(x/EC50)^−Hill slope) to calculate EC50.
(vii) All compounds were assayed in comparison with a highly purified preparation of BPC8, that was prepared by Carbogen AMCIS AG, dissolved in sterile water and diluted into TC buffer as required.
The immunoturbidimetric CRP assay on the Roche COBAS MIRA Plus autoanalyser, utilises two different sized microparticles that are covalently coupled with two different monoclonal antibodies, which recognise different CRP epitopes. The assay was developed by Roche for clinical measurement of CRP serum and plasma with high sensitivity and a very wide dynamic range. Serendipitously, one of the two antibodies binds to an epitope present on the ligand binding B-face of CRP. Thus, when the binding pocket is occupied by ligand and, especially, when the B-face is occluded by the B-face to B-face interaction of two native CRP pentamers produced by cross linking via our unique bivalent ligands, the assay fails to detect the CRP. In contrast, the CRP is all detected and assayed normally by other assays that disrupt the crosslinking and/or use antibodies which recognise different, non-occluded, epitopes. Inhibition of CRP recognition in the Roche assay is thus a convenient tool to monitor the efficacy and potency of complex formation between our unique ligands and CRP.

CRP [2] = biological target: T1, CRP; assay: Size exclusion chromatography of CRP/ligand cross linking; format: binding; conditions: CRP/ligand complex re-chromatographed in absence of free ligand
Protocol: (i) Ligands were diluted to 0.5 mM in TC buffer from up to 10 mM stocks. Serial dilutions were prepared as required. […]
(iii) The complex was chromatographed on a Superdex200 column (10/300 GL; 24 ml bed volume), connected to the ÅKTA100 Explorer HPLC system, and equilibrated and eluted in TC buffer at 0.5 ml/min. Eluates were monitored at 280 nm and fractions (0.5 ml) collected as required.
Size exclusion chromatography on a Superdex 200 column equilibrated and eluted with TC buffer pH 8.0, and calibrated with standard globular marker proteins and with human CRP, the native CRP pentamer (Mr 115 kDa) eluted at 13.9 ml (range 13.7-14.0 ml, n=10).

CRP [3] = biological target: T1, CRP; assay: Immobilised phosphocholine plate assay (125I-CRP binding); conditions: read-out: IC50 for inhibition of 125I-CRP binding to immobilised phosphocholine
Protocol: (i) Phosphocholine was immobilised on Greiner NHS-activated microtitre plates by incubation with 4-aminophenyl-1-phosphocholine. Remaining active sites were blocked by incubation with 4% w/v BSA in TC buffer (TCB).
(ii) Human CRP at 1 μg/ml in TC buffer was spiked with ^125I-labelled CRP to provide 10^6 cpm/ml.
(iii) Compounds were prepared from up to 10 mM stock solutions by dilution in TC buffer to 0.5 mM (labelled S1). Serial dilutions were prepared by diluting 100 μl ligand solution with 200 μl TC buffer (S2-S10). A ligand-free control was also used (SO, TC only).
(iv) A 100 μl volume of CRP solution was incubated with 10 μl of each compound (S1-S10, SO) for 1 h at room temperature without stirring, to provide final ligand concentrations across the range 45.5 μM-6.9 nM with a ligand:CRP monomer molar ratio of 1151-0.06. In some cases, single fixed ligand concentrations were also assayed in comparison with PC.
(v) A 100 μl volume of each CRP-ligand mixture was added to the plate wells and incubated for 2 h at room temperature. Solutions were then discarded and the plates washed with TCB buffer. Bound radioactivity was measured (1 min counts) using a gamma counter (Perkin Elmer Wizard 2470).
(vi) Data were plotted with Sigmaplot v14 software using the 4-parameter logistic curve y=min+(max−min)/(1+(x/EC50)^−Hill slope) to calculate IC50.

IC50 (CRP [1]) [µM]	Compound	Stable to rechromatography (CRP [2])	IC50 (CRP [3]) [nM]
> 400	O=C(CCCCCC(=O)NC(C(=O)O)[C@H]1CN2CCC1CC2)NC(C(=O)O)[C@H]1CN2CCC1CC2 (stereo partly drawn) [Compound P1d-5, 2-[(3R)-1-azabicyclo[2.2.2]octan-3-yl]-2-(6-{[[(3R)-1-azabicyclo[2.2.2]octan-3-yl](carboxy)methyl]carbamoyl}hexanamido)acetic acid]	–	–
> 400	O=C(CCCCCCCC(=O)NC(C(=O)O)[C@H]1CN2CCC1CC2)NC(C(=O)O)[C@H]1CN2CCC1CC2 (stereo partly drawn) [Compound P1d-7, 2-[(3R)-1-azabicyclo[2.2.2]octan-3-yl]-2-(8-{[[(3R)-1-azabicyclo[2.2.2]octan-3-yl](carboxy)methyl]carbamoyl}octanamido)acetic acid]	–	–
127	CN(C)CCOP(=O)(O)OCCCCCCCCOP(=O)(O)OCCN(C)C [Dm-BPC8, bis(2-(dimethylamino)ethyl) octane-1,8-diyl bis(hydrogen phosphate), reference compound]	–	–
> 400	O=C(CC(=O)NC(C(=O)O)[C@H]1CN2CCC1CC2)NC(C(=O)O)[C@H]1CN2CCC1CC2 (stereo partly drawn) [Compound P1d-1, 2-[(3R)-1-azabicyclo[2.2.2]octan-3-yl]-2-(2-{[[(3R)-1-azabicyclo[2.2.2]octan-3-yl](carboxy)methyl]carbamoyl}acetamido)acetic acid]	–	–
0.72	CC(C)(C/C=C/CC(C)(C)COP(=O)(O)O[C@@H]1CN2CCC1CC2)COP(=O)(O)O[C@@H]1CN2CCC1CC2 [Pk-032, di((S)-1-azabicyclo[2.2.2]octan-3-yl) (E)-2,2,7,7-tetramethyloct-4-ene-1,8-diyl bis(hydrogen phosphate)]	–	–
9.92	O=C(CCCCCCC(=O)NC(C(=O)O)[C@H]1CN2CCC1CC2)NC(C(=O)O)[C@H]1CN2CCC1CC2 (stereo partly drawn) [Compound P1d-6, 2-[(3R)-1-azabicyclo[2.2.2]octan-3-yl]-2-[7-({[(3R)-1-azabicyclo[2.2.2]octan-3-yl](carboxy)methyl}carbamoyl)heptanamido]acetic acid]	–	–
1.08	O=P(O)(OCCCCCCOP(=O)(O)O[C@@H]1CN2CCC1CC2)O[C@@H]1CN2CCC1CC2 [Pk-025, Hexane-1,6-diyl di(S)-quinuclidin-3-yl) bis(hydrogen phosphate]	–	280
0.59	CC(C)(CCCCC(C)(C)COP(=O)(O)O[C@@H]1CN2CCC1CC2)COP(=O)(O)O[C@@H]1CN2CCC1CC2 [Pk-033, [(3S)-1-azabicyclo[2.2.2]octan-3-yloxy]({[8-({[(3S)-1-azabicyclo[2.2.2]octan-3-yloxy](hydroxy)phosphoryl}oxy)-2,2,7,7-tetramethyloctyl]oxy})phosphinic acid]	–	–
26.2	O=C(NC(C(=O)O)[C@H]1CN2CCC1CC2)NC(C(=O)O)[C@H]1CN2CCC1CC2 (stereo partly drawn) [Compound P2B-G, 2-[[-carboxy-[(3R)-quinuclidin-3-yl]methyl]carbamoylamino]-2-[(3R)-quinuclidin-3-yl]acetic acid]	–	–
> 400	O=C(CCCC(=O)NC(C(=O)O)[C@H]1CN2CCC1CC2)NC(C(=O)O)[C@H]1CN2CCC1CC2 (stereo partly drawn) [Compound P1d-3, 2-[(3R)-1-azabicyclo[2.2.2]octan-3-yl]-2-(4-{[[(3R)-1-azabicyclo[2.2.2]octan-3-yl](carboxy)methyl]carbamoyl}butanamido)acetic acid]	–	–

Further lines, the compound ahead of its results:

Compound	IC50 (CRP [1]) [µM]	Stable to rechromatography (CRP [2])	IC50 (CRP [3]) [nM]
O=C(CCCCC(=O)NC(C(=O)O)C1CN2CCC1CC2)NC(C(=O)O)C1CN2CCC1CC2 [Compound P1d-4, 2-[(3R)-1-azabicyclo[2.2.2]octan-3-yl]-2-(8-{[[(3R)-1-azabicyclo[2.2.2]octan-3-yl](carboxy)methyl]carbamoyl}pentamido)acetic acid]	< 2	Partial	–
O=P(O)(OCCCCCCCCCOP(=O)(O)O[C@@H]1CN2CCC1CC2)O[C@@H]1CN2CCC1CC2 [Pk-028, Nonane-1,9-diyl di(S)-quinuclidin-3-yl) bis(hydrogen phosphate]	–	–	160
O=C(NC(C(=O)O)[C@H]1CN2CCC1CC2)C(=O)NC(C(=O)O)[C@H]1CN2CCC1CC2 (stereo partly drawn) [Compound P1d-0, 2-[(3R)-1-azabicyclo[2.2.2]octan-3-yl]-2-[({[(3R)-1-azabicyclo[2.2.2]octan-3-yl](carboxy)methyl}carbamoyl)formamido]acetic acid]	0.97	–	–
O=C(CCC(=O)NC(C(=O)O)[C@H]1CN2CCC1CC2)NC(C(=O)O)[C@H]1CN2CCC1CC2 (stereo partly drawn) [Compound P1d-2, 2-[(3R)-1-azabicyclo[2.2.2]octan-3-yl]-2-[3-({[(3R)-1-azabicyclo[2.2.2]octan-3-yl](carboxy)methyl}carbamoyl)propanamido]acetic acid]	< 2	Yes	–
O=P(O)(OCCCCCCCOP(=O)(O)OC1CN2CCC1CC2)OC1CN2CCC1CC2 [Pk-026, Heptane-1,7-diyl di(S)-quinuclidin-3-yl) bis(hydrogen phosphate]	–	–	180
O=P(O)(OCCCCCCCCCCOP(=O)(O)O[C@@H]1CN2CCC1CC2)O[C@@H]1CN2CCC1CC2 [Pk-027, Decane-1,10-diyl di(S)-quinuclidin-3-yl) bis(hydrogen phosphate]	–	–	180
O=C(Cc1ccc(CC(=O)NC(C(=O)O)[C@H]2CN3CCC2CC3)cc1)NC(C(=O)O)[C@H]1CN2CCC1CC2 (stereo partly drawn) [Compound P2B-C, 2-[[2-[4-[2-[[carboxy-[(3R)-quinuclidin-3-yl]methyl]amino]-2-oxo-ethyl]phenyl]acetyl]amino]-2-[(3R)-quinuclidin-3-yl]acetic acid]	2.69	–	–
O=C(CC(c1ccccc1)C(CC(=O)NC(C(=O)O)[C@H]1CN2CCC1CC2)c1ccccc1)NC(C(=O)O)[C@H]1CN2CCC1CC2 (single isomer, unassigned) [P2B-D peak1]	0.66	Yes	–
C[N+]12CCC(CC1)[C@@H](C(NC(=O)CCCCC(=O)NC(C(=O)O)[C@H]1C[N+]3(C)CCC1CC3)C(=O)O)C2 (stereo partly drawn) [Compound P1d-4A, (3R)-3-{carboxy[5-({carboxy[(3R)-1-methyl-1-azabicyclo[2.2.2]octan-1-ium-3-yl]methyl}carbamoyl)pentanamido]methyl}-1-methyl-1-azabicyclo[2.2.2]octan-1-ium]	1.43	–	–
